Assay: Solubility of CCFA as a function of pH
Type: physicochemical
Conditions: below pH 5
Text: In this example, CCFA was employed as the analyte. The solubility of CCFA varies as a function of pH.

solubility of CCFA: relatively insoluble
SMILES: CO/N=C(\C(=O)N[C@@H]1C(=O)N2C(C(=O)O)=C(CSC(=O)c3ccco3)CS[C@H]12)c1csc(N)n1 [CCFA, ceftiofur crystalline free acid]

Source: patent US20040115822A1, “Methods of measuring the dissolution rate of an analyte in a non-aqueous liquid composition” (priority 2002, published 2004)
